Test results taken from US20260000675A1, “COMBINATION THERAPY FOR PREVENTING OR TREATING OBESITY” (LG CHEM, LTD., priority 2022, published 2026).

Key:
Format in all cases: in vivo
[1] = test system: diet-induced obesity (DIO) mouse model; assay: Comparative example: weight loss on co-administration of semaglutide with test compound or setmelanotide in DIO mice; details: repeated co-administration with semaglutide for 18 days, test compound 15 mg/kg/day, comparative compound 3 mg/kg/day, FIG. 4
Description: In a diet-induced obesity (DIO) mouse model where obesity was induced using a high-fat diet, the weight loss effect was compared after 18 days of repeated co-administration of semaglutide (a GLP-1 receptor agonist, trade name: Ozempic) with either the test compound, which is an MC4R agonist, or setmelanotide (RM-493), which is a peptide MC4R agonist (hereinafter referred to as ‘comparative compound’). Dosages of the test compound and the comparative compound were selected based on the efficacious doses observed in single administration studies (test compound: 15 mg/kg/day, comparative compound: 3 mg/kg/day). Body weight measurements were taken once daily prior to the administration of the test substances, and changes in body weight after 18 days relative to weight (D1) prior to the administration of the test substances were calculated and presented in FIG. 4.

[2] = test system: diet-induced obesity (DIO) mouse model; assay: Combination study with PF-06882961 (danuglipron) in DIO mice: food intake, body weight, body fat mass, OGTT
Procedure: In a diet-induced obesity (DIO) mouse model where obesity was induced using a high-fat diet, changes in food intake and body weight were measured over 4 weeks of repeated co-administration of PF-06882961 (danuglipron), which is an oral GLP-1 receptor agonist, and the test compound, which is an MC4R agonist. Food intake and body weight were measured once daily prior to the administration of the test substances, and changes in body weight relative to weight (D1) prior to the administration of the test substances were calculated, with the results presented in FIGS. 5 and 6, respectively. Further, on the 28th day after the administration of the test substances, body fat mass and an oral glucose tolerance test (OGTT) were measured, with the results shown in FIGS. 7 and 8, respectively. Body fat mass was measured using a ^1H-Mini-spec system (LF-9011, Bruker Optics GmbH, Germany) and blood glucose was measured using GM9 (Analox Instruments Ltd., UK) with blood samples collected from the tail vein.

[3] = test system: diet-induced obesity (DIO) mouse model; assay: Weight loss effect on repeated co-administration with semaglutide in DIO mice; details: repeated co-administration with semaglutide over 18 days, versus single administration, FIGS. 1 and 2
Procedure: In a diet-induced obesity (DIO) mouse model where obesity was induced using a high-fat diet, the weight loss effect was measured over 18 days following repeated co-administration of semaglutide (a GLP-1 receptor agonist, trade name: Ozempic) and an MC4R agonist, N-((3S,5S)-1-((3S,4R)-1-(tert-butyl)-4-(4-chlorophenyl)pyrrolidine-3-carbonyl)-5-(morpholin-4-carbonyl)pyrrolidin-3-yl)-N-((1 S,4R)-4-methylcyclohexyl)isobutyramide hydrochloride obtained in Preparation Example (hereinafter referred to as ‘test compound’). Body weight measurements were taken once daily prior to the administration of the test substances, and changes in body weight compared to weight (D1) prior to the administration of the test substances were calculated and presented in FIGS. 1 and 2. By comparing the weight loss effect in the co-administration group to that in the single administration group, the effect of co-administration of a GLP-1 receptor agonist and the test compound was evaluated.

[4] = test system: diet-induced obesity (DIO) mouse model; assay: Reduction in liver/fat weight on repeated co-administration with semaglutide in DIO mice; details: after 3 weeks, FIG. 3
Procedure: In a diet-induced obesity (DIO) mouse model where obesity was induced using a high-fat diet, the effect of reduction in liver and fat weights was measured after 3 weeks of repeated co-administration of semaglutide (a GLP-1 receptor agonist, trade name: Ozempic) and the test compound, which is an MC4R agonist, with the results shown in FIG. 3.

SMILES: CC(C)C(=O)N([C@H]1C[C@@H](C(=O)N2CCOCC2)N(C(=O)[C@@H]2CN(C(C)(C)C)C[C@H]2c2ccc(Cl)cc2)C1)[C@H]1CC[C@@H](C)CC1.Cl [test compound, N-((3S,5S)-1-((3S,4R)-1-(tert-butyl)-4-(4-chlorophenyl)pyrrolidine-3-carbonyl)-5-(morpholine-4-carbonyl)pyrrolidin-3-yl)-N-((1s,4R)-4-methylcyclohexyl)isobutyramide hydrochloride]
- weight loss effect (change in body weight after 18 days relative to D1) [1]: significant synergistic weight loss effect
- reduction in body fat mass ([2]; co-administration with PF-06882961, day 28, 1H-Mini-spec, versus single administration, FIG. 7): much greater reduction in body fat mass
- improvement in glucose tolerance (OGTT) ([2]; co-administration with PF-06882961, day 28, oral glucose tolerance test, versus single administration, FIG. 8): improvement in glucose tolerance
- weight loss effect (change in body weight relative to D1) ([2]; repeated co-administration with PF-06882961 over 4 weeks (28 days), versus single administrations, FIG. 6): synergistic weight loss effect
- reduction in food intake ([2]; repeated co-administration with PF-06882961 over 28 days, versus single administrations, FIG. 5): significant reduction in food intake
- weight loss effect (change in body weight relative to D1) [3]: synergistic weight loss effect
- effect of reduction in fat weight [4]: synergistic effect in reducing liver and fat weights
- effect of reduction in liver weight [4]: synergistic effect in reducing liver and fat weights
